Assay results published in patent US7763602B2, “Pyrrole derivatives as antimycobacterial compounds” (priority 2002, dated 2010).
≈ marks a conversion by molar mass, not a printed value. Where two headings read alike, the source gives them in different places.

How the values were obtained:
[1] = test system: M. tuberculosis (Resistant strain); format: in vivo, mice; details: Table V; for Mean Log10 No. of CFU Lung / Mean Log10 No. of CFU Spleen: 5 day/week for 4 week, treated 01 day post-infection; for Mean Log10 No. of reduction Lung / Mean Log10 No. of reduction Spleen: difference from early controls
[2] = test system: M. tuberculosis clinical isolates, resistant; experiment: microbe, parasite or virus in culture; format: cell-based, Mycobacterium tuberculosis; details: for MIC (μg/ml) against Clinical isolates Resistant: Table I, agar dilution; for MIC: Mycobacterium tuberculosis
[3] = read-out: MIC (μg/ml) against Clinical isolates Resistant
[4] = read-out: MIC (μg/ml) M. tuberculosis Resistant (n = 26)

SMILES: NNC(=O)c1ccncc1 [Isoniazid, reference compound]
- Mean Log10 No. of CFU Lung ([1]; 12.5 mg/kg): 5.8 ± 0.4
- Mean Log10 No. of CFU Spleen ([1]; 12.5 mg/kg): 5.79 ± 0.4
- Mean Log10 No. of reduction Lung ([1]; 12.5 mg/kg): −1.33
- Mean Log10 No. of reduction Spleen ([1]; 12.5 mg/kg): −1.16
- Mean Log10 No. of CFU Lung ([1]; 25 mg/kg): 5.12 ± 0.6
- Mean Log10 No. of CFU Spleen ([1]; 25 mg/kg): 5.43 ± 0.5
- Mean Log10 No. of reduction Lung ([1]; 25 mg/kg): −0.65
- Mean Log10 No. of reduction Spleen ([1]; 25 mg/kg): −0.8
- Mean Log10 No. of CFU Lung ([1]; 50 mg/kg): 4.43 ± 0.5
- Mean Log10 No. of CFU Spleen ([1]; 50 mg/kg): 4.7 ± 0.31
- Mean Log10 No. of reduction Lung ([1]; 50 mg/kg): 0.04
- Mean Log10 No. of reduction Spleen ([1]; 50 mg/kg): −0.07

SMILES: Cc1c(CN2CCN(Cc3ccc4c(c3)OCO4)CC2)cc(-c2ccc(Cl)cc2)n1-c1ccc(F)cc1F [compound 50, 5-[(4-{[1-(2,4-difluorophenyl)-5-(4-chlorophenyl)-2-methylpyrrol-3-yl]-methyl}-piperazinyl)methyl]-2H-benzo[d]1,3-dioxolane]
- MIC (μg/ml) against Clinical isolates Resistant [2]: 4.0 to 16.0 µg/mL

SMILES: Cc1c(CN2CCN(C(c3ccccc3)c3ccccc3)CC2)cc(-c2ccc(Cl)cc2)n1-c1ccc(F)cc1F [compound 48, 1-{[1-(2,4-difluorophenyl)-5-(4-chlorophenyl)-2-methylpyrrol-3-yl]methyl}-4-(4-diphenylmethyl)piperazine]
- MIC (μg/ml) against Clinical isolates Resistant [2]: >16.0 µg/mL

SMILES: Cc1cc(CN2CCN(c3ccccn3)CC2)c(-c2ccccc2)n1NC(=O)c1cnccn1 [compound 34, N-(3-{[4-(2-pyridyl)piperazinyl]methyl}-5-methyl-2-phenylpyrrolyl)pyrazin-2-ylcarboxamide]
- MIC (μg/ml) against Clinical isolates Resistant [2]: >16.0 µg/mL

SMILES: Cc1c(CN2CCN(C(=O)c3ccco3)CC2)cc(-c2ccc(Cl)cc2)n1-c1ccc(Cl)cc1 [compound 7, 4-{[1,5-bis(4-chlorophenyl)-2-methylpyrrol-3-yl]methyl}piperazinyl-2-furyl-ketone]
- MIC (μg/ml) against Clinical isolates Resistant [2]: 2.0 to 4.0 µg/mL

SMILES: Cc1c(CN2CCN(c3cccc(C(F)(F)F)c3)CC2)cc(-c2ccc(Cl)cc2)n1-c1ccc(F)cc1F [compound 46, 1-{[1-(2,4-difluorophenyl)-5-(4-chlorophenyl)-2-methylpyrrol-3-yl]methyl}-4-(3-trifluoromethylphenyl)piperazine]
- MIC [2, 3]: 4 to 16 µg/mL (≈ 7.33 to 29.3 µM)

SMILES: COc1ccccc1N1CCN(Cc2cc(-c3ccc(Cl)cc3)n(NC(=O)c3cnccn3)c2C)CC1 [compound 38, N-(5-(4-chlorophenyl)-3-{[4-(2-methoxyphenyl)piperazinyl]methyl}-2-methylpyrrolyl)pyrazin-2-ylcarboxamide]
- MIC (μg/ml) against Clinical isolates Resistant [2]: >16.0 µg/mL

SMILES: Cc1c(CN2CCN(c3cccc(C(F)(F)F)c3)CC2)cc(-c2ccc(Cl)cc2)n1-c1ccc(Cl)cc1 [Compound No. 3, 1-{[1,5-bis(4-chlorophenyl)-2-methylpyrrol-3-yl]methyl}-4-(3-trifluoromethylphenyl)piperazine]
- MIC [2, 4]: 0.25 to 0.5 µg/mL (≈ 0.459 to 0.918 µM)
- MIC [2, 3]: 0.25 to 0.5 µg/mL (≈ 0.459 to 0.918 µM)
- Mean Log10 No. of CFU Lung ([1]; 12.5 mg/kg): 2.98 ± 0.5
- Mean Log10 No. of CFU Spleen ([1]; 12.5 mg/kg): 2.91 ± 0.4
- Mean Log10 No. of reduction Lung ([1]; 12.5 mg/kg): 1.49
- Mean Log10 No. of reduction Spleen ([1]; 12.5 mg/kg): 1.72
- Mean Log10 No. of CFU Lung ([1]; 25 mg/kg): 2.3 ± 0.17
- Mean Log10 No. of CFU Spleen ([1]; 25 mg/kg): 2.2 ± 0.31
- Mean Log10 No. of reduction Lung ([1]; 25 mg/kg): 2.17
- Mean Log10 No. of reduction Spleen ([1]; 25 mg/kg): 2.43
- Mean Log10 No. of CFU Lung ([1]; 50 mg/kg): 1.99 ± 0.3
- Mean Log10 No. of CFU Spleen ([1]; 50 mg/kg): 1.97 ± 0.4
- Mean Log10 No. of reduction Lung ([1]; 50 mg/kg): 2.48
- Mean Log10 No. of reduction Spleen ([1]; 50 mg/kg): 2.66

SMILES: COc1ccccc1N1CCN(Cc2cc(C)n(NC(=O)c3cnccn3)c2-c2ccccc2)CC1 [compound 32, N-(3-{[4-(2-methoxyphenyl)piperazinyl]methyl}-5-methyl-2-phenylpyrrolyl) pyrazin-2-ylcarboxamide]
- MIC (μg/ml) against Clinical isolates Resistant [2]: >16.0 µg/mL

SMILES: Cc1cc(CN2CCN(c3ccc(F)cc3)CC2)c(-c2ccccc2)n1-c1ccc(F)cc1F [compound 55, 1-{[1-(2,4-difluorophenyl)-5-methyl-2-phenylpyrrol-3-yl]methyl}-4-(4-fluorophenyl) piperazine]
- MIC [2, 3]: > 16 µg/mL

SMILES: Cc1c(CN2CCN(c3cccc(C(F)(F)F)c3)CC2)cc(-c2ccccc2)n1NC(=O)c1ccncc1 [Compound No. 12, N-(3-{[4-(3-trifluoromethylphenyl)piperazinyl]methyl}-2-methyl-5-phenylpyrrolyl)-4-pyridylcarboxamide]
- MIC (μg/ml) against Clinical isolates Resistant [2]: 0.5 to 1.0 µg/mL

SMILES: Cc1cc(CN2CCN(c3cccc(C(F)(F)F)c3)CC2)c(-c2ccc(Cl)cc2)n1NC(=O)c1cnccn1 [compound 43, N-(2-(4-chlorophenyl)-3-{[4-(3-trifluoromethylphenyl)piperazinyl]methyl}-5-methylpyrrolyl)pyrazin-2-ylcarboxamide]
- MIC (μg/ml) against Clinical isolates Resistant [2]: >16.0 µg/mL

SMILES: Cc1c(CN2CCN(Cc3ccc4c(c3)OCO4)CC2)cc(-c2ccccc2)n1NC(=O)c1cnccn1 [compound 29, N-(3-{[4-(2H-benzo[d]1,3-dioxolen-5-ylmethyl)piperazinyl]methyl}-2-methyl-5-phenylpyrrolyl)pyrazin-2-ylcarboxamide]
- MIC (μg/ml) against Clinical isolates Resistant [2]: >16.0 µg/mL

SMILES: COc1ccccc1N1CCN(Cc2cc(C)n(-c3cccc4ccccc34)c2-c2ccc(Cl)cc2)CC1 [compound 63, 1-{[2-(4-chlorophenyl)-5-methyl-1-naphthylpyrrol-3-yl]methyl}-4-(2-methoxyphenyl)piperazine]
- MIC (μg/ml) against Clinical isolates Resistant [2]: 4.0 to 16.0 µg/mL

SMILES: Cc1c(CN2CCN(c3ncccn3)CC2)cc(-c2ccc(Cl)cc2)n1-c1ccc(Cl)cc1 [compound 5, 1-{[1,5-bis(4-chlorophenyl)-2-methylpyrrol-3-yl]methyl}-4-(2-pyrimidyl) piperazine]
- MIC [2, 4]: 1 to 2 µg/mL (≈ 2.09 to 4.18 µM)
- MIC [2, 3]: 0.5 to 2 µg/mL (≈ 1.05 to 4.18 µM)

SMILES: Cc1c(CN2CCSCC2)cc(-c2ccccc2)n1NC(=O)c1ccncc1 [compound 21, N-[2-methyl-5-phenyl-3-(1,4-thiazaperhydroin-4-ylmethyl)pyrrolyl]-4-pyridyl carboxamide]
- MIC (μg/ml) against Clinical isolates Resistant [2]: 1.0 to 4.0 µg/mL

SMILES: Cc1cc(CN2CCN(c3cccc(C(F)(F)F)c3)CC2)c(-c2ccccc2)n1NC(=O)c1cnccn1 [compound 33, N-(3-{[4-(3-trifluoromethylphenyl)piperazinyl]methyl}-5-methyl-2-phenylpyrrolyl)pyrazin-2-ylcarboxamide]
- MIC (μg/ml) against Clinical isolates Resistant [2]: 4.0 to 8.0 µg/mL

SMILES: Cc1c(CN2CCN(c3cccc(C(F)(F)F)c3)CC2)cc(-c2ccccc2)n1-c1ccc(F)cc1F [compound 53, 1-{[1-(2,4-difluorophenyl)-2-methyl-5-phenylpyrrol-3-yl]methyl}-4-(3-trifluoromethylphenyl)piperazine]
- MIC [2, 3]: > 16 µg/mL

SMILES: Cc1cc(CN2CCN(c3ccccn3)CC2)c(-c2ccccc2)n1-c1ccc(F)cc1F [compound 58, 1-{[1-(2,4-difluorophenyl)-5-methyl-2-phenylpyrrol-3-yl]methyl}-4-(2-pyridyl) piperazine]
- MIC [2, 3]: 8 to 16 µg/mL (≈ 18 to 36 µM)

SMILES: Cc1c(CN2CCN(c3ccc(F)cc3)CC2)cc(-c2ccccc2)n1NC(=O)c1ccncc1 [compound 11, N-(3-{[4-(4-fluorophenyl)piperazinyl]methyl}-2-methyl-5-phenylpyrrolyl)-4-pyridylcarboxamide]
- MIC (μg/ml) against Clinical isolates Resistant [2]: 0.5 to 2.0 µg/mL

SMILES: Cc1c(CN2CCN(c3ccc(F)cc3)CC2)cc(-c2ccc(Cl)cc2)n1-c1ccc(F)cc1F [compound 44, 1-{[1-(2,4-difluorophenyl)-5-(4-chlorophenyl)-2-methylpyrrol-3-yl]methyl}-4-(4-fluorophenyl)piperazine]
- MIC [2, 3]: 2 to 4 µg/mL (≈ 4.03 to 8.06 µM)

SMILES: COc1ccccc1N1CCN(Cc2cc(-c3ccc(Cl)cc3)n(-c3cccc4ccccc34)c2C)CC1 [compound 59, 1-{[5-(4-chlorophenyl)-2-methyl-1-naphthylpyrrol-3-yl]methyl}-4-(2-methoxyphenyl)piperazine]
- MIC (μg/ml) against Clinical isolates Resistant [2]: >16.0 µg/mL

SMILES: Cc1c(CN2CCS(=O)(=O)CC2)cc(-c2ccccc2)n1-c1ccccc1 [compound 88]
- MIC (μg/ml) against Clinical isolates Resistant [2]: 2.0 to 8.0 µg/mL
